Laboratory results as given in US10426784B2, “Imidazodiazepine compound” (Astellas Pharma Inc., priority 2015, dated 2019).

Columns and labels:
[1] = biological target: T1, human dopamine D1 receptor (Homo sapiens, UniProt P21728); assay: Evaluation of positive allosteric modulating action (PAM action): left shift of dopamine dose-response curve (cAMP, TR-FRET); type: cell-based; details: human dopamine D1 receptor stably-expressing CHO cells
T1 construct: expressed in transfected cells
Method: Buffer solution for assay=αMEM containing 1 mM IBMX
Buffer solution for dilution=αMEM containing 1 mM IBMX and 0.8 mM ascorbic acid
Evaluation of Positive allosteric modulating action (PAM action)
The PAM action of the compound of the present invention was evaluated by the ratio of a left shift of a dopamine dose response curve.
The left shift means that the dopamine dose response curve, in which the logarithm of dose is set to abscissa (X axis) and the response (in this test, cAMP concentration) is set to ordinate (Y axis), is parallely shifted in the negative direction of the X axis by the addition of PAM.
The coding sequence of a human dopamine D1 receptor (Accession No.: NM_000794.3) was amplified by PCR, and was subcloned into a pEF-BOS vector. […]
To measure cAMP, LANCE Ultra cAMP kit (PerkinElmer Inc., LANCE is a registered trademark) was used. […] The plate was incubated at room temperature for 1 hour, and then the fluorescence intensity at 665 nm and 620 nm was measured (excitation wavelength: 320 nm, fluorescence wavelength: 665 nm, 620 nm) by TR-FRET method using a plate reader (2103 Multilabel Plate Reader (registered trademark Envision), PerkinElmer, Inc.). The fluorescence intensity ratio [(fluorescence intensity at 665 nm)/(fluorescence intensity at 620 nm)×10^4] of each well was calculated, and was used for analysis. […]

ddY male mouse = assay: Y-maze test (spontaneous alternation behavior, MK-801-induced cognitive impairment); type: in vivo; details: single oral administration 1 hour before test, MK-801 0.15 mg/kg i.p.
Method: The improvement effect on cognitive impairment of the compound of the present invention was evaluated using Y-maze test that is an experimental system of spontaneous alternation behavior.
As the Y-maze, a maze in which three runways, each having a length of 40 cm, a height of 13 cm, a floor width of 3 cm, and an upper portion width of 10 cm, are attached to each other in a Y shape at an angle of 120°, was used. […]
After the aforementioned mouse was placed at the end of any runway in the Y-maze, the mouse was freely searched for eight minutes. The number of times the mouse has entered the runway was counted, and this counted number of times was set to the total entry number. The number of times the mouse has continuously entered three different runways (for example, when three arms were represented by a, b, and c, respectively, in the case where the order of entry of runways is abccbacab, it was counted by 4) was set to spontaneous alternation behavior number. Spontaneous alternation behavior rate is calculated by Calculation Equation: Spontaneous alternation behavior rate=[spontaneous alternation behavior number/(total entry number−2)]×100. The calculated spontaneous alternation behavior rate was set to an index of spontaneous alternation behavior.
The measured value was represented by average value f standard error for each group. […]

male Long Evans rats = assay: Attentional set-shifting task (sub-chronic PCP rats); type: in vivo, rat; details: single oral administration after CD
Method: Attentional Set-Shifting Task
The compound of the present invention was evaluated by an attentional set-shifting task test.
The attentional set-shifting task test, as in WCST, is a test for measuring flexibility with respect to the change of a rule (clue). The effect on executive function disorder which is one of higher brain dysfunctions can be evaluated by this test.
After allowing the mouse to learn a task that food reward is obtained if there is a clue, in the case where the clue is shifted within a dimension (for example, the clue is changed from a form to another form), both normal animal and pathological animal having abnormality in the prefrontal cortex of the brain (hereinafter, referred to as “pathological animal”) can discriminate clues to obtain food reward. However, after allowing the mouse to learn a task of obtaining food reward by a clue, in the case where the clue is shifted to the outside of a dimension (for example, the clue is changed from a form to aroma), the normal animal can discriminate a clue of food, but the pathological animal cannot discriminate the clue of food. This test puts this behavior to practical use.
The following experiments were carried out with reference to European Journal of Neuroscience, 2005, vol. 21, p. 1070-1076, which was partially modified. […]

T1 sequence (P21728 whole entry): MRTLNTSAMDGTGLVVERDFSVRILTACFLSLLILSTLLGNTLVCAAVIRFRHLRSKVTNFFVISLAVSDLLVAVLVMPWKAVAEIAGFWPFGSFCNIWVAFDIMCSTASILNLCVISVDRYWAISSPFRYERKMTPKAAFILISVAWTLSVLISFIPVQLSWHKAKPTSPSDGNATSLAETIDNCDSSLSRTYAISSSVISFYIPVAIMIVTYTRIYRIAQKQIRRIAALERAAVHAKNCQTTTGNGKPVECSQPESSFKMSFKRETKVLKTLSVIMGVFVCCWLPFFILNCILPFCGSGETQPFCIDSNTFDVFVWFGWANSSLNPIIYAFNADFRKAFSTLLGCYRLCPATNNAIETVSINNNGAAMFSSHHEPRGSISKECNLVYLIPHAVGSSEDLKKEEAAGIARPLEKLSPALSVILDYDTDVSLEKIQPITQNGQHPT

O=C(Cn1c(=O)oc2cccc(F)c21)N1CCCn2cc(-c3ccc(C(F)(F)F)cc3)nc2C1 [Ex1, 4-fluoro-3-(2-oxo-2-{2-[4-(trifluoromethyl)phenyl]-6,7-dihydro-5H-imidazo[1,2-a][1,4]diazepin-8(9H)-yl}ethyl)-1,3-benzoxazol-2(3H)-one]
EC50 2-fold potentiation (test drug concentration by which the EC50 of dopamine is potentiated in 2-fold) [1]: 61 nM | Dat2: minimum effective dose (significantly improving spontaneous alternation behavior) (ddY male mouse): 0.03 mg/kg | Dat3: minimum effective dose (improving the executive function disorder, ED task) (male Long Evans rats): 0.003 mg/kg
